According to PubChem BioAssay AID1963872 (Molecular Pharmacology Branch, DTP, NCI, 2024):
Values joined by “and” are separate entries in the source; they are usually repeats but may differ in a detail not shown here. Identical values can stand only once.

Test system: KRAS patient-derived spheroids with HUVEC/MSC, viability
Assay: Anticancer human tumor 519858-162-T-J1-PDC patient-derived colon adenocarcinoma cell line growth inhibition [KRAS2]
Conditions: for viability, T/C: stronger effect = lower value
Outline: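 Combination screen of spheroid viability in tumor-cell co-cultures with endothelial (HUVEC) and mesenchymal stem cell stroma. Each agent was tested in half-log dilutions, topping at clinical Cmax or at 10 microM without a known Cmax.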

[1] = curve of first compound, second compound 0.1 µM
[2] = curve of first compound, second compound 0.316 µM
[3] = curve of first compound, second compound 1 µM
[4] = curve of first compound, second compound 3.16 µM
[5] = curve of first compound, second compound 10 µM
[6] = second compound 0.1 µM, first compound 0.0316 µM
[7] = second compound 0.1 µM, first compound 0.1 µM
[8] = second compound 0.1 µM, first compound 0.316 µM
[9] = second compound 0.1 µM, first compound 1 µM
[10] = second compound 0.316 µM, first compound 0.0316 µM
[11] = second compound 0.316 µM, first compound 0.1 µM
[12] = second compound 0.316 µM, first compound 0.316 µM
[13] = second compound 0.316 µM, first compound 1 µM
[14] = second compound 1 µM, first compound 0.0316 µM
[15] = second compound 1 µM, first compound 0.1 µM
[16] = second compound 1 µM, first compound 0.316 µM
[17] = second compound 1 µM, first compound 1 µM
[18] = second compound 3.16 µM, first compound 0.0316 µM
[19] = second compound 3.16 µM, first compound 0.1 µM
[20] = second compound 3.16 µM, first compound 0.316 µM
[21] = second compound 3.16 µM, first compound 1 µM
[22] = second compound 10 µM, first compound 0.0316 µM
[23] = second compound 10 µM, first compound 0.1 µM
[24] = second compound 10 µM, first compound 0.316 µM
[25] = second compound 10 µM, first compound 1 µM
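Also: compound exposure lasted seven days before readout.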
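For viability, T/C in this document: 100% = DMSO vehicle control viability.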

For `COc1cc2nc(C)nc(NC(C)c3cc(N)cc(C(F)(F)F)c3)c2cc1OC1CCOC1` (centres undefined), the IC50 (compound alone, run of 07/19/2021) was > 10 µM and 8.93 µM and the IC50 (compound alone, run of 07/26/2021) was 9.77 µM and > 10 µM and 3.56 µM.
With `COC(=O)c1ccc2c(C(=Nc3ccc(N(C)C(=O)CN4CCN(C)CC4)cc3)c3ccccc3)c(O)[nH]c2c1` the viability, T/C (compound 0.0316 µM) was 87.6% [middle of 5 runs] and the IC50 (curve of compound) was greater than 10 µM.
In the case of `CCN1CCN(Cc2ccc(Nc3ncc(F)c(-c4cc(F)c5nc(C)n(C(C)C)c5c4)n3)nc2)CC1` + CC1OCC2(CCN(c3cnc(Sc4ccnc(N)c4Cl)c(N)n3)CC2)C1N, the IC50 [1] is reported as 0.735 µM, the IC50 [2] is reported as greater than 1 µM and the IC50 [3] is reported as 0.162 µM. It also gave an IC50 [4] of less than 0.00316 µM, an IC50 [5] of 0.0478 µM and a viability, T/C (second compound 0.1 µM, first compound 0.00316 µM) of 80.7%. The viability, T/C (second compound 0.1 µM, first compound 0.01 µM) was 79%, the viability, T/C [6] was 103% and the viability, T/C [7] was 60.1%. It also gave a viability, T/C [8] of 81.7%, a viability, T/C [9] of 38.7% and a viability, T/C (second compound 0.316 µM, first compound 0.00316 µM) of 59.2%. For the same compound, the viability, T/C (second compound 0.316 µM, first compound 0.01 µM) was 63.5%, the viability, T/C [10] was 69.1% and the viability, T/C [11] was 63.2%. For the same compound, the viability, T/C [12] was 64.2%, the viability, T/C [13] was 40.6% and the viability, T/C (second compound 1 µM, first compound 0.00316 µM) was 49.9%. It also gave a viability, T/C (second compound 1 µM, first compound 0.01 µM) of 67.8%, a viability, T/C [14] of 75.5% and a viability, T/C [15] of 49.4%. The viability, T/C [16] was 43.1%, the viability, T/C [17] was 24.3% and the viability, T/C (second compound 3.16 µM, first compound 0.00316 µM) was 49.7%. It also gave a viability, T/C (second compound 3.16 µM, first compound 0.01 µM) of 40.7%, a viability, T/C [18] of 57.9% and a viability, T/C [19] of 41.7%. The viability, T/C [20] was 30.9%, the viability, T/C [21] was 29.4% and the viability, T/C (second compound 10 µM, first compound 0.00316 µM) was 68.1%. It also gave a viability, T/C (second compound 10 µM, first compound 0.01 µM) of 57.4%, a viability, T/C [22] of 48.2% and a viability, T/C [23] of 50%. It also gave a viability, T/C [24] of 39.9% and a viability, T/C [25] of 29.2%.
`Cn1nccc1Nc1nccc(-c2cc3c(s2)C(C)(C)N(CCN2CCOCC2)C3=O)n1` + CNCc1ccccc1-c1csc(C(C)Nc2nc(C)nc3cc(OC)c(OC)cc23)c1 gave an IC50 [1] of 3.24 µM, an IC50 [2] of 4.47 µM and an IC50 [3] of 1.09 µM. For the same compound, the IC50 [4] was less than 0.0316 µM, the IC50 [5] was less than 0.0316 µM and the viability, T/C [6] was 102%. It also gave a viability, T/C [7] of 90.2%, a viability, T/C [8] of 74.2% and a viability, T/C [9] of 63%. For the same compound, the viability, T/C (second compound 0.1 µM, first compound 3.16 µM) was 55.7%, the viability, T/C (second compound 0.1 µM, first compound 10 µM) was 33.5% and the viability, T/C [10] was 90.3%. For the same compound, the viability, T/C [11] was 77.5%, the viability, T/C [12] was 68.2% and the viability, T/C [13] was 78.5%. It also gave a viability, T/C (second compound 0.316 µM, first compound 3.16 µM) of 49.2%, a viability, T/C (second compound 0.316 µM, first compound 10 µM) of 39.6% and a viability, T/C [14] of 79.5%. The viability, T/C [15] was 71%, the viability, T/C [16] was 74.3% and the viability, T/C [17] was 50.6%. It also gave a viability, T/C (second compound 1 µM, first compound 3.16 µM) of 31.9%, a viability, T/C (second compound 1 µM, first compound 10 µM) of 25.9% and a viability, T/C [18] of 38.9%. It also gave a viability, T/C [19] of 48%, a viability, T/C [20] of 29.8% and a viability, T/C [21] of 36.6%. For the same compound, the viability, T/C (second compound 3.16 µM, first compound 3.16 µM) was 20.8%, the viability, T/C (second compound 3.16 µM, first compound 10 µM) was 21.2% and the viability, T/C [22] was 2.36%. For the same compound, the viability, T/C [23] was 0.52%, the viability, T/C [24] was 0.35% and the viability, T/C [25] was 0.39%. The viability, T/C (second compound 10 µM, first compound 3.16 µM) was 0.71% and the viability, T/C (second compound 10 µM, first compound 10 µM) was 0.65%.
